Converted amounts (≈) assume the structure as drawn.
Key:
[1] = system: Mycobacterium tuberculosis; assay: Anti-mycobacterial activity against Mycobacterium tuberculosis clinical isolate assessed as bacterial growth inhibition incubated for 7 days by microplate Alamar blue assay; format: functional; conditions: 168 h, time 7 day
[2] = system: Mycobacterium tuberculosis; assay: Anti-mycobacterial activity against Mycobacterium tuberculosis H37Rv assessed as bacterial growth inhibition incubated for 7 days by microplate Alamar blue assay; format: functional; conditions: 168 h, time 7 day
[3] = biological target: T1, Amine oxidase [flavin-containing] A (Homo sapiens, UniProt P21397); assay: Inhibition of recombinant MAO-A (unknown origin) using kynuramine as a substrate by MAO assay; format: toxicity
T1 sequence (P21397 whole entry): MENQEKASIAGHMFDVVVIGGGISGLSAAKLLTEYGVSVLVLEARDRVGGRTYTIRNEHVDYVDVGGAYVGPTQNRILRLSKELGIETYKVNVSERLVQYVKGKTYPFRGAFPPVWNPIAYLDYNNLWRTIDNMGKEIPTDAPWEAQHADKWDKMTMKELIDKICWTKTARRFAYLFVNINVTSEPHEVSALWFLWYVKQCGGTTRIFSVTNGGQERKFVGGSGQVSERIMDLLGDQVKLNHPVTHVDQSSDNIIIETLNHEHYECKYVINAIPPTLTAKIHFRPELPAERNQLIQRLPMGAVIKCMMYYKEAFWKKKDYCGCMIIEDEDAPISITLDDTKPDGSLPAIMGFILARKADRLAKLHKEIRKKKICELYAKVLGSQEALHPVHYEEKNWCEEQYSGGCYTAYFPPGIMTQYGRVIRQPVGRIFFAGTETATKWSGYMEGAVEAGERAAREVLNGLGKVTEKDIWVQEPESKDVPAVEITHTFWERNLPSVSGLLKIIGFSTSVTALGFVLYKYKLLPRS

[4] = biological target: T2, Amine oxidase [flavin-containing] B (Homo sapiens, UniProt P27338); assay: Inhibition of recombinant MAO-B (unknown origin) using benzylamine as a substrate by MAO assay; format: toxicity
T2 sequence (P27338 whole entry): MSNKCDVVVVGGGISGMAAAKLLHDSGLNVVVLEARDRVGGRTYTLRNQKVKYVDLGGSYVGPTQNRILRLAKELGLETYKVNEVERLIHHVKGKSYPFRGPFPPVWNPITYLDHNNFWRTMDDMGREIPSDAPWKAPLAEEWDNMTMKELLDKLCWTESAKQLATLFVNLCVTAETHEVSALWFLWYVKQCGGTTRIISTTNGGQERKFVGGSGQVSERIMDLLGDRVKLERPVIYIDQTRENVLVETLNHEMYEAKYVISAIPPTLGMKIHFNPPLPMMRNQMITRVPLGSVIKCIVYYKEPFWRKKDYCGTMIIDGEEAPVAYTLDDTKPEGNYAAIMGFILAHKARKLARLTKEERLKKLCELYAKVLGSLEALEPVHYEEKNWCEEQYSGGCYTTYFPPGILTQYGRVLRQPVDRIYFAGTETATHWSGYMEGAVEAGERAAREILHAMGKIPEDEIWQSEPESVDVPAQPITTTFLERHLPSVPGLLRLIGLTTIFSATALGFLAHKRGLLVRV

Structure (SMILES): NNC(=O)c1ccncc1 [ISONIAZID]
- MIC50 [1]: < 0.2 µM
- MIC90 [1]: < 0.2 µM

Structure (SMILES): Clc1ccc(COC(Cn2ccnc2)c2ccc(Cl)cc2Cl)c(Cl)c1 (stereo unspecified) [MICONAZOLE]
- MIC [2]: 3.74 µM (≈ 1.56 µg/mL)
- MIC50 [1]: 1 µM (≈ 0.416 µg/mL)
- MIC90 [1]: 1.56 µM (≈ 0.649 µg/mL)
- IC50 [3]: 37.8 µM
- IC50 [4]: 13.2 µM

Structure (SMILES): CCC(C)n1ncn(-c2ccc(N3CCN(c4ccc(OCC5COC(Cn6cncn6)(c6ccc(Cl)cc6Cl)O5)cc4)CC3)cc2)c1=O (stereo unspecified) [ITRACONAZOLE]
- MIC [2]: > 35 µM

Structure (SMILES): Clc1ccccc1C(c1ccccc1)(c1ccccc1)n1ccnc1 [CLOTRIMAZOLE]
- MIC [2]: 2.26 µM (≈ 0.779 µg/mL)
- MIC50 [1]: 0.87 µM (≈ 0.3 µg/mL)
- MIC90 [1]: 1.56 µM (≈ 0.538 µg/mL)
- IC50 [3]: 25.4 µM
- IC50 [4]: 31.2 µM

Structure (SMILES): CO[C@H]1/C=C/O[C@@]2(C)Oc3c(C)c(O)c4c(O)c(c(/C=N/N5CCN(C)CC5)c(O)c4c3C2=O)NC(=O)/C(C)=C\C=C\[C@H](C)[C@H](O)[C@@H](C)[C@@H](O)[C@@H](C)[C@H](OC(C)=O)[C@@H]1C [RIFAMPIN]
- MIC50 [1]: < 0.04 µM
- MIC90 [1]: < 0.04 µM

Structure (SMILES): CC[C@@H]([C@H](C)O)n1ncn(-c2ccc(N3CCN(c4ccc(OC[C@@H]5CO[C@@](Cn6cncn6)(c6ccc(F)cc6F)C5)cc4)CC3)cc2)c1=O [POSACONAZOLE]
- MIC [2]: > 35 µM

Structure (SMILES): CC(=O)NC[C@H]1CN(c2ccc(N3CCOCC3)c(F)c2)C(=O)O1 [LINEZOLID]
- MIC [2]: 2.31 µM (≈ 0.779 µg/mL)
- MIC50 [1]: 0.34 µM (≈ 0.115 µg/mL)
- MIC90 [1]: 0.78 µM (≈ 0.263 µg/mL)
- IC50 [3]: 6.52 µM
- IC50 [4]: 0.619 µM

From ChEMBL document CHEMBL5390314, “Repurposing Azoles to Resolve Serotogenic Toxicity Associated with Linezolid to Combat Multidrug-Resistant Tuberculosis” (ACS Med Chem Lett, 2023)
